Data: US20230364119A1, “AUTOPHAGY ACTIVATOR” (Resonac Corporation, priority 2020, published 2023)

Tests used:
mTOR gene = mTOR gene expression suppression effect in human senescent fibroblasts (quantitative real-time PCR); type: cell-based
Experimental: Normal human fibroblasts (NB1RGB, RIKEN BRC Cell Bank) were cultured until confluent in D-MEM medium (manufactured by Sigma-Aldrich) to which 10% fetal bovine serum (manufactured by MP Biomedicals) was added. Thereafter, the cells were treated with 250 μM aqueous hydrogen peroxide for 2 hours, and cultured for 24 hours in D-MEM medium to which fresh 10% fetal bovine serum was added. The treatment with aqueous hydrogen peroxide and the cell culture operation were repeated three times, and the obtained fibroblasts were used as senescent fibroblasts.
(§1) The prepared senescent fibroblasts were prepared at a seeding density of 10000 cells/cm^2 and cultured for 24 hours in D-MEM medium (manufactured by Sigma-Aldrich) to which 10% fetal bovine serum (manufactured by MP Biomedicals) was added. Next, in Example 8, the inositol derivative A dissolved in purified water was added to the medium such that the final concentration of the inositol derivative A was 10-4% (V/V). […]
(§2) Then, using Nucleospin (registered trademark) RNA kit (manufactured by Takara Bio Inc.), RNA was extracted from senescent fibroblasts or normal human fibroblasts in each example, and cDNA was synthesized from the obtained RNA. Next, using this cDNA as a template, by quantitative real-time PCR, the expression level of mTOR gene was quantified using primers (manufactured by Takara Bio Inc.) specific to mTOR gene. […]

Beclin 1 gene = Beclin 1 gene expression promoting effect in human neuroblastoma in the presence of amyloid β; type: cell-based
Experimental: In the presence of an autophagy activator, the expression levels of the LC3 gene, ATG5 gene, and Beclin 1 gene in human neuroblastoma (SH-SY5Y; obtained from ATCC) were measured by the following test method, and the effect of promoting the expression of the LC3 gene, ATG5 gene, and Beclin 1 gene by an autophagy activator was evaluated.
In the following examples and comparative examples, tests were performed by adding amyloid β, which is known to cause a decrease in autophagy in nerve cells, to each medium.
as §1, with “SH-SY5Y cells” for “The prepared senescent fibroblasts”, “D-MEM medium/Ham's F-12” for “D-MEM”, “15,” for “8,”
as §2, with “SH-SY5Y cells” for “senescent fibroblasts or normal human fibroblasts”, “each” for “mTOR”, “the LC3 gene, ATG5 gene, and Beclin 1 gene, respectively.” for “mTOR gene.”

For `O[C@H]1[C@H](O)[C@@H](O)[C@H](O)[C@@H](O)[C@H]1O` [Comparative Example 2, myo-inositol], the “Relative gene expression level mTOR” value (mTOR gene; 24 hours, 10^−3% (V/V) inositol or inositol derivative A, with the vitamin derivative of the example where added, GAPDH-standardized, Comparative Example 3 (purified water) = 1.00) was 0.95, the “expression level of the mTOR gene, in words” value (mTOR gene; compared to Comparative Example 3 (purified water only)) was “almost the same” and the “expression level of the Beclin 1 gene, in words” value (Beclin 1 gene; SH-SY5Y cells with amyloid β, compared to Reference Example 3 (purified water only, no amyloid β)) was “slightly increased”. The “Relative gene expression level Beclin 1” value (Beclin 1 gene; SH-SY5Y cells, 20 μM amyloid β present, 48 hours, 10^−3% (V/V) inositol or inositol derivative A, with the vitamin derivative of the example where added, Reference Example 3 (purified water, no amyloid β) = 1.00) was 1.31.
